Data from ChEMBL document CHEMBL1201862, “PubChem BioAssay data set” (2004).
Several values for one entry are separate records, joined by “and”; a condition that tells them apart may be missing. Identical values can stand only once. Activity calls are given as the source filed them.

Columns and labels:
Keap1/Nrf2 = Keap1/Nrf2 (Homo sapiens, UniProt Q14145); experiment: Keap1-Nrf2 protein-protein interaction inhibitors, dose response, biochemical, fluorescence polarization, cherry-picked samples (AID 588683)
Chain of Keap1/Nrf2 (Q16236 whole entry): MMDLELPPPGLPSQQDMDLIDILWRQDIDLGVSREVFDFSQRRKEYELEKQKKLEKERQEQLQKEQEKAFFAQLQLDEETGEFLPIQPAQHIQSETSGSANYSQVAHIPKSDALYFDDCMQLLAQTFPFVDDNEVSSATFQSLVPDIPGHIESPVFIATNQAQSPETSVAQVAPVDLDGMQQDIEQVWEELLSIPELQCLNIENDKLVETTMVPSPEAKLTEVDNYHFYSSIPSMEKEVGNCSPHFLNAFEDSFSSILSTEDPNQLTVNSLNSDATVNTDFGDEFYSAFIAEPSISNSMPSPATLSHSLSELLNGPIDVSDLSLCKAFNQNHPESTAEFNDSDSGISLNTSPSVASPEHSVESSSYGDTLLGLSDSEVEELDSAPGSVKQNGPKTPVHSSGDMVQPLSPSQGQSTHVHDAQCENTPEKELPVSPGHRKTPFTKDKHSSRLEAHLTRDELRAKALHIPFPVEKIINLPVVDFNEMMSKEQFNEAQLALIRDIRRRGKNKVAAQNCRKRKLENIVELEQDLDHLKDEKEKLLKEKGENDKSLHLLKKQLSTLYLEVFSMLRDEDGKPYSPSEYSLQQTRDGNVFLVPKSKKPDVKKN
Chain of Keap1/Nrf2 (Q14145 whole entry): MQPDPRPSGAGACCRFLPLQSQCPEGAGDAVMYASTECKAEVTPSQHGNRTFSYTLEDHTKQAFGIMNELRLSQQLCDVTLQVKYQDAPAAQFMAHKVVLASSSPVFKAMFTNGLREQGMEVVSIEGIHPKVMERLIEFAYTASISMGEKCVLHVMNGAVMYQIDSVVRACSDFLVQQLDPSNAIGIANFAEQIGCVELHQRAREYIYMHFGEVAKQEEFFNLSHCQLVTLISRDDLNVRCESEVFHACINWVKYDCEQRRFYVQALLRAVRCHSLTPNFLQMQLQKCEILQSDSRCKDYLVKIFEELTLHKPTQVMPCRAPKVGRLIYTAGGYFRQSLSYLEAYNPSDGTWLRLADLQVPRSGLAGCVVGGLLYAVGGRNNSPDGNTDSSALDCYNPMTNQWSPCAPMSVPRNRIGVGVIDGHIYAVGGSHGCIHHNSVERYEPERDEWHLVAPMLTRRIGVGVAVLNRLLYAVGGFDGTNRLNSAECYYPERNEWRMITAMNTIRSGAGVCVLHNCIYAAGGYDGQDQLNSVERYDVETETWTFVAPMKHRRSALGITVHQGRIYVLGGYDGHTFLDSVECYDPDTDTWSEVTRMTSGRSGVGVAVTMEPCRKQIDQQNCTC

14-3-3 protein gamma = target: T1, 14-3-3 protein gamma (Homo sapiens, UniProt P61981); experiment: modulators of 14-3-3 gamma client binding – dose response (AID 711); type: functional
T1 sequence (P61981 whole entry): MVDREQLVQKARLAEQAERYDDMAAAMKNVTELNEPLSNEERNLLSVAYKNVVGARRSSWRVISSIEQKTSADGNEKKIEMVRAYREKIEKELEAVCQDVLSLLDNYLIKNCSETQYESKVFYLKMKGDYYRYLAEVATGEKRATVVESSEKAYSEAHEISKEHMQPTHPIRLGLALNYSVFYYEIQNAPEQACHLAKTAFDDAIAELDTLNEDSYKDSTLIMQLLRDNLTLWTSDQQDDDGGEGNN

ORF 73 = target: T2, ORF 73 (Human herpesvirus 8, UniProt O40947); experiment: inhibitors of C-LANA binding to LBS DNA, dose response, biochemical, fluorescence polarization, cherry-picked samples (AID 504725); design: species or system Human gammaherpesvirus 8;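 further: fluorescence polarization of a labeled DNA duplex reporting LANA DNA binding; potency is for inhibitors that block LANA binding to the DNA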
T2 sequence (O40947 whole entry): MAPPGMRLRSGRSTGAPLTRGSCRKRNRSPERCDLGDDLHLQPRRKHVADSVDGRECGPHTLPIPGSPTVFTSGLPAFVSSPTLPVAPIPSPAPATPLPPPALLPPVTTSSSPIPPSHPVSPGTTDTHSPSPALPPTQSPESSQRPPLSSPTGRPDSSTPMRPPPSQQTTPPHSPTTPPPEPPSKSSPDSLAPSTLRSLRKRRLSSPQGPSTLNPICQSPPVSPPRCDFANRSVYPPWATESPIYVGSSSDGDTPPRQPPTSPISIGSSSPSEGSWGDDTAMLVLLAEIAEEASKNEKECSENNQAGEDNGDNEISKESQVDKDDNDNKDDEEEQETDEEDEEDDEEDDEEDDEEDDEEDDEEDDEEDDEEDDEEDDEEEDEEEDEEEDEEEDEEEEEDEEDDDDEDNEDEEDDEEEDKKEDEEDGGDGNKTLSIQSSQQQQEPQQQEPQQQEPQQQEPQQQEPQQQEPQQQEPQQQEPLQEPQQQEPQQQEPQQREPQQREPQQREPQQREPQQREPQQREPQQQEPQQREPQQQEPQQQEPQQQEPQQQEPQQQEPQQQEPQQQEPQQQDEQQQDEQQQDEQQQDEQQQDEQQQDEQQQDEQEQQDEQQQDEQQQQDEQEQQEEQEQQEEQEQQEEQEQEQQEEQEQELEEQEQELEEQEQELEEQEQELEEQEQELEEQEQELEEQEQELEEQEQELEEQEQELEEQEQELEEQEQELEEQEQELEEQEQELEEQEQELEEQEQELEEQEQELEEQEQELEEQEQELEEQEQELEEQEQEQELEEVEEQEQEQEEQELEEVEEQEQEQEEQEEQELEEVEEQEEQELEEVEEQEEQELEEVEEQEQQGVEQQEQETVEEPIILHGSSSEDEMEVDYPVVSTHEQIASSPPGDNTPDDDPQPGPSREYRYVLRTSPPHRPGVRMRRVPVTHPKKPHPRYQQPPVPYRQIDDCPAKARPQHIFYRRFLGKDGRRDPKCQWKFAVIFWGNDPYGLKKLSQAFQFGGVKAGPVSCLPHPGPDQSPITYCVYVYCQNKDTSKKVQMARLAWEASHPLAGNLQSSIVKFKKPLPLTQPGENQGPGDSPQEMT

[1] = inhibitors of HIV Env-driven cell fusion, dose response, cherry-pick (AID 652057); type: functional, cell-based
[2] = CEM21 lymphoblast cell cytotoxicity, dose response, cytotoxicity control for viral fusion inhibitor project, CellTiter-Glo luminescence, cherry-picked (AID 652042); type: functional, cell-based;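 further: potency for signal decrease meaning cytotoxicity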
[3] = ZM109 Env clade C HIV-1 fusion inhibitors, dose response, HeLa effector, CEM target cells, luciferase, cherry-pick (AID 652058); type: functional, cell-based
[4] = off-target signal loss in HeLa-CEM21 co-culture – HeLa F-luc CTL cells, cherry-picked, counter-screen for HIV-1 Env fusion inhibitor project, dose response (AID 652040); type: functional, cell-based;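 further: potency for signal decrease marking cytotoxic or nonspecific inhibition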
[5] = inhibitors of clade B AD8 Env fusion, dose response, cell-based, cherry-pick (AID 652062); type: functional;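 further: luciferase signal from cell-cell fusion driven by HIV-1 clade B AD8 Env; potency is for inhibitors of fusion seen as a drop in luminescence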
HEK293 [6] = experiment: cells; details: Homo sapiens
HEK293 [7] = experiment: cells; details: Homo sapiens; remark: listed apart in the source
Estrogen receptor = target: T3, Estrogen receptor (Homo sapiens, UniProt P03372);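 further: potency for inhibiting coactivator peptide recruitment to the receptor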
T3 sequence (P03372 whole entry): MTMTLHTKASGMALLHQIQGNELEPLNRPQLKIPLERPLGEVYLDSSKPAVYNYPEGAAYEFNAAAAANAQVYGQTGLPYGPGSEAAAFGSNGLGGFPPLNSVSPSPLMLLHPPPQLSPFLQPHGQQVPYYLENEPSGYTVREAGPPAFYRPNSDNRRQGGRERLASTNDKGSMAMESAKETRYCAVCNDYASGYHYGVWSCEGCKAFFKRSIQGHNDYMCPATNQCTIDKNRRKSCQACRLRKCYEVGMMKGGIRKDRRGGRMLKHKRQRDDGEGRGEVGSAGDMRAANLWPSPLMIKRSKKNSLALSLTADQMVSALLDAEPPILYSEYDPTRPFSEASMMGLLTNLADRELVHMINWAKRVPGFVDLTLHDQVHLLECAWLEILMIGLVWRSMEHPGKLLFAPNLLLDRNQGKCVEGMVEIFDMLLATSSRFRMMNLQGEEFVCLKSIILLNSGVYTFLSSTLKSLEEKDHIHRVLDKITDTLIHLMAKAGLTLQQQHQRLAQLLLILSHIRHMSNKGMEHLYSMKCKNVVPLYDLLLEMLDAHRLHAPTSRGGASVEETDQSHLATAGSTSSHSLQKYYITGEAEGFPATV

[8] = growth suppression of PTEN-null colon cells, dose response, cell-based, HCT116 PTEN knockout (AID 1047); type: functional;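 further: HCT116 colon tumor cells with PTEN knocked out; cells exposed to compound for 60 hours before readout; potency for loss of cell viability measured by luminescence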
[9] = growth suppression of beta-catenin-knockout colon cells, dose response, cell-based, HCT116, human colon tumor (AID 1045); type: functional;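 further: HCT116 colon tumor cells with beta catenin knocked out; cells exposed to compound for 60 hours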
Coagulation factor XII = target: T4, Coagulation factor XII (Homo sapiens, UniProt P00748); type: functional;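 further: activated factor XIIa alpha cleaving a fluorogenic AMC peptide substrate; inhibitor potency from loss of enzyme activity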
T4 sequence (P00748 whole entry): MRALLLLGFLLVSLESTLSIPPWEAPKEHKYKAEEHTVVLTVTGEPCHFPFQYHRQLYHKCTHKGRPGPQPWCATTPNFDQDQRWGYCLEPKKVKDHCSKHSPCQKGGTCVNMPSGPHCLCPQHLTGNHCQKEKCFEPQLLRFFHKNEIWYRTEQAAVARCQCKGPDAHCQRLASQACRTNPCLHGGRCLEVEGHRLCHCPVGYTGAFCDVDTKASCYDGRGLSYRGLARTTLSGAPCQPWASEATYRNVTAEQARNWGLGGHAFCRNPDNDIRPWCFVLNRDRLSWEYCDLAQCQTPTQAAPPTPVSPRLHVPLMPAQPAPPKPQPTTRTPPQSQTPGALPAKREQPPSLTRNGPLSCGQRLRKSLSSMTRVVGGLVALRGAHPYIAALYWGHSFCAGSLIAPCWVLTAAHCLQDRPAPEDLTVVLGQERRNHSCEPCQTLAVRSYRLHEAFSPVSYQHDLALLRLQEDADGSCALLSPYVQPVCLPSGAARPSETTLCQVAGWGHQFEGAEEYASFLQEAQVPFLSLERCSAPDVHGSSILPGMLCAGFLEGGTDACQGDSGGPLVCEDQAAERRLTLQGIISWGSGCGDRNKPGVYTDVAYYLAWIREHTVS

[10] = THP-1 cell cytotoxicity, dose response, cytotoxicity control for non-replicating M. tuberculosis project (AID 489025); type: functional
[11] = target: T5, Ubiquitin-conjugating enzyme E2 N (Homo sapiens, UniProt P61088); type: functional;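 further: Dose-response confirmation in a TR-FRET assay detecting UBC13-driven polyubiquitin chain formation, inhibition measured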
T5 sequence (P61088 whole entry): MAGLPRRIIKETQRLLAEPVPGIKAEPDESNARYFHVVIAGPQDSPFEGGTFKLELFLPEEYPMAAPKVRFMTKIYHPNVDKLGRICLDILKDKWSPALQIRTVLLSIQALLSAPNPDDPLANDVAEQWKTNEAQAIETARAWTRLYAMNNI

[12] = Vero E6 cell cytotoxicity, dose response, cytotoxicity control for non-replicating M. tuberculosis project, secondary assay (AID 492998); type: functional, VeroE6; details: Vero C1008
cells = type: functional
A-375 = experiment: A375 melanoma cell viability reduction, dose response, counter-screen for MITF modulator project, cherry-pick samples, set 2 (AID 540335); type: functional, cell-based; details: Homo sapiens
[13] = target: T6, Mannose-6-phosphate isomerase (Homo sapiens, UniProt P34949); experiment: PMI enzyme inhibitors, confirmation, biochemical, fluorescence intensity (AID 1535)
T6 sequence (P34949 whole entry): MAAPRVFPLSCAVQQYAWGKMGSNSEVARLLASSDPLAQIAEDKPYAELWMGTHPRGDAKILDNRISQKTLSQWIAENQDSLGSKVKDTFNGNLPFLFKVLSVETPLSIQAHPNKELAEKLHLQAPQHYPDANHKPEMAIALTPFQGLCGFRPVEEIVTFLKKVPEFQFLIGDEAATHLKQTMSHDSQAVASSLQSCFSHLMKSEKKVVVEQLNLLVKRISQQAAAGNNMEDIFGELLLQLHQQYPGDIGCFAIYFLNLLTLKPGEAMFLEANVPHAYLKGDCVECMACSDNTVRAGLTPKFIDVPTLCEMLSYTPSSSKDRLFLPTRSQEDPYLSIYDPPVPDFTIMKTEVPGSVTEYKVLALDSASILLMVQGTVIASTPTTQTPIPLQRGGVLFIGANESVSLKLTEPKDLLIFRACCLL

Phosphomannomutase 2 = target: T7, Phosphomannomutase 2 (Homo sapiens, UniProt O15305); experiment: Counter screen SAR assay for PMM2 inhibitors via a fluorescence intensity assay. [Related pubchem assays (depositor defined):AID1545, AID1574]
T7 sequence (O15305 whole entry): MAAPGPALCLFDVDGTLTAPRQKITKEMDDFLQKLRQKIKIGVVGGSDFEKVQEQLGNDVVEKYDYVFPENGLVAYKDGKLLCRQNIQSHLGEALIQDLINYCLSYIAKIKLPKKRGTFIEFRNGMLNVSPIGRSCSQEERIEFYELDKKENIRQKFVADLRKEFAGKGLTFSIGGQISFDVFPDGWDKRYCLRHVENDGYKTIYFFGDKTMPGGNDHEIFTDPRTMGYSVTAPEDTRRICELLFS

[14] = target: E3 ubiquitin-protein ligase Mdm2 (Homo sapiens, UniProt Q00987); experiment: enhancers of MDM2-luciferase reporter signal, concentration-effect titration, project on inhibitors of MDM2 ubiquitin ligase, cellular assay, luminescent readout, 384-well plate format (AID 1394); type: functional;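 further: MDM2 E3 inhibitors raise luminescence so EC50 is for signal enhancement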
Chain of E3 ubiquitin-protein ligase Mdm2 (Q00987 whole entry): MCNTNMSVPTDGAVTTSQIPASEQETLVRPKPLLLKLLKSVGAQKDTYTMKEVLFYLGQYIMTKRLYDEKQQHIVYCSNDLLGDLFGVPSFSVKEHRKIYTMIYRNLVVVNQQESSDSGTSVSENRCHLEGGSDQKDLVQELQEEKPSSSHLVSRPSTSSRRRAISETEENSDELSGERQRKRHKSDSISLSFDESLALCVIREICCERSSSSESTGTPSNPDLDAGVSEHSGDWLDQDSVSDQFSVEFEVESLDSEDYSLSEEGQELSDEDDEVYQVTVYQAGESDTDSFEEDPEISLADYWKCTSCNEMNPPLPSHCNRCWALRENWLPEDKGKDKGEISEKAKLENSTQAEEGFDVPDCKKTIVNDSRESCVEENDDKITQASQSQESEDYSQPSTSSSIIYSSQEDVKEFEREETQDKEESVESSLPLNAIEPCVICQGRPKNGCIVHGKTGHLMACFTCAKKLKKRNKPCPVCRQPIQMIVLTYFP

[15] = target: T8, Microphthalmia-associated transcription factor (Homo sapiens, UniProt O75030); experiment: TRPM1 promoter luciferase signal decrease, dose response, MITF inhibitor project, cell-based, SK-MEL-5, cherry-picked, set 3 (AID 493073); type: functional
T8 sequence (O75030 whole entry): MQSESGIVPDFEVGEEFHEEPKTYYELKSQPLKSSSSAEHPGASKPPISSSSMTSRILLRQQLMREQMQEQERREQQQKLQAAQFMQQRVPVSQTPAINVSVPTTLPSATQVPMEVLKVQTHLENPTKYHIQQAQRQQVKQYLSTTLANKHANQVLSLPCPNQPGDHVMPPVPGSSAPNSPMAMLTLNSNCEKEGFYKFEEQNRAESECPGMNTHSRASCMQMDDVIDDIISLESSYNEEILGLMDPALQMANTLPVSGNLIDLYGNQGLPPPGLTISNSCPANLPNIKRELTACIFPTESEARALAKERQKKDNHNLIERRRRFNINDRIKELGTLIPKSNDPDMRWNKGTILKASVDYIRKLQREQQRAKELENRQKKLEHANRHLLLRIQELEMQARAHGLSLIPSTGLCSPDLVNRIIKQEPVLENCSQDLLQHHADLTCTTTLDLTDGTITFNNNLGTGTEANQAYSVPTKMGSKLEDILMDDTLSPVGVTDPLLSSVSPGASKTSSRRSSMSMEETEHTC

c1ccc2c(c1)CCCN2Cc1nnnn1CC1CCCO1 (centres undefined)
AC50 (Keap1/Nrf2): > 52 µM (inactive)

O=C(O)c1ccccc1C1=Nc2ccc(O)cc2Oc2cc(O)ccc21
IC50 (14-3-3 protein gamma): 5.02 µM (active) | AC50 (ORF 73): 5.76 µM (active) | AC50 (Keap1/Nrf2): 4.97 µM (active)

COc1ccc(CC(N)c2csc(NC(=O)Nc3ccccc3Cc3ccccc3)n2)cc1 (centres undefined)
AC50 [1]: < 0.26 µM (active) | AC50 [2]: 12.4 µM (active) | AC50 [3]: 0.304 µM (active) | AC50 [4]: 0.381 µM (active) | AC50 [5]: 0.832 µM (active) | EC50 (HEK293 [6]): > 59.7 µM (inactive) | EC50 (HEK293 [7]): > 59.7 µM (inactive)

Cc1ccc(N/C=C2/C(=O)N(c3ccc4c(c3)OCO4)C(=O)c3ccccc32)cc1
IC50 (Estrogen receptor): 19.8 µM (active) | EC50 [8]: 8.15 µM (active) | EC50 [9]: 9.32 µM (active) | IC50 (Coagulation factor XII): > 50 µM (inactive)

COc1ccc(C2CC(C(F)(F)F)n3ncc(C(=O)NCC4CCCO4)c3N2)cc1OC (centres undefined)
EC50 (HEK293 [6]): > 59.6 µM (inactive) | EC50 (HEK293 [7]): > 59.6 µM (inactive)

Cc1ccc2nc(N(CCCN(C)C)C(=O)c3ccc4c(c3)CCCC4)sc2c1
EC50 [8]: 15.2 µM (active) | EC50 [9]: 12.1 µM (active) | CC50 [10]: 16.5 µM (active) | IC50 [11]: > 20 µM (inactive) | CC50 [12]: > 20 µM (active) | IC50 (cells): 22.8 µM (active) | AC50 (A-375): 19.7 µM (active)

Clc1nss/c1=N\c1cccnc1
IC50 [13]: 16.7 µM (active) and 13.2 µM (active) | IC50 (Phosphomannomutase 2): > 65.8 µM (active)

O=C1NC(=O)N(CCc2ccc(F)cc2)C(=O)/C1=C\C=C\c1ccccc1
EC50 [14]: 0.13 µM (not active) | AC50 [15]: 8.26 µM (active) | AC50 (A-375): 33.6 µM (active)
